Experimental data reported in ChEMBL document CHEMBL3091294, “Design, synthesis and evaluation of novel 4-dimethylamine flavonoid derivatives as potential multi-functional anti-Alzheimer agents” (Bioorg Med Chem, 2013).

Columns and labels:
Cholinesterase = Cholinesterase (Equus caballus, UniProt P81908)
Description: Inhibition of equine serum BChE using butylthiocholine chloride as substrate incubated for 15 mins prior to substrate addition by Ellman's method

[1] = biological target: Amyloid-beta precursor protein (Homo sapiens) (UniProt P05067); assay: Inhibition of amyloid beta (1 to 42) aggregation (unknown origin) at 20 uM after 48 hrs by thioflavin-T fluorescence assay relative to control
Sequence of Amyloid-beta precursor protein (Homo sapiens) (P05067 whole entry): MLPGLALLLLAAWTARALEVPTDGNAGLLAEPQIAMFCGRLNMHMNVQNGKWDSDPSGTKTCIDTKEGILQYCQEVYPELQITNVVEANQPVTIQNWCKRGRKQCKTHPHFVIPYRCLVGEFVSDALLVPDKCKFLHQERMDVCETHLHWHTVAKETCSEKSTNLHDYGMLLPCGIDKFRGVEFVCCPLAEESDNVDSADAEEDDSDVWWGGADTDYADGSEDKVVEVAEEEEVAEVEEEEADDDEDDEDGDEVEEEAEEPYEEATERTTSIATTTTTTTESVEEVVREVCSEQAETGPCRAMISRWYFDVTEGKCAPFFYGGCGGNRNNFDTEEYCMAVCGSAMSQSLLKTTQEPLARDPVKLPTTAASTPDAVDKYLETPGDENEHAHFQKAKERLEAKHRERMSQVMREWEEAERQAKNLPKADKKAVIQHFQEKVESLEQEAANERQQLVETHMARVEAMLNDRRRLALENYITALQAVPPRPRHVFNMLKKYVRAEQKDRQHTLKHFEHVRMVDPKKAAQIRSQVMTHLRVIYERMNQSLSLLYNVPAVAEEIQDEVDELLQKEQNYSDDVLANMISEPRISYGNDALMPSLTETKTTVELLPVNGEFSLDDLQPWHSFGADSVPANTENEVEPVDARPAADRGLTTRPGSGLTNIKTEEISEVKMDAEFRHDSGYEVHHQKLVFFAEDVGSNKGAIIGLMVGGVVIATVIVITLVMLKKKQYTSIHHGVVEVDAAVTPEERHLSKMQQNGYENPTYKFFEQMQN

Acetylcholinesterase [2] = biological target: T1, Acetylcholinesterase (Electrophorus electricus, UniProt O42275)
T1 sequence (O42275 whole entry): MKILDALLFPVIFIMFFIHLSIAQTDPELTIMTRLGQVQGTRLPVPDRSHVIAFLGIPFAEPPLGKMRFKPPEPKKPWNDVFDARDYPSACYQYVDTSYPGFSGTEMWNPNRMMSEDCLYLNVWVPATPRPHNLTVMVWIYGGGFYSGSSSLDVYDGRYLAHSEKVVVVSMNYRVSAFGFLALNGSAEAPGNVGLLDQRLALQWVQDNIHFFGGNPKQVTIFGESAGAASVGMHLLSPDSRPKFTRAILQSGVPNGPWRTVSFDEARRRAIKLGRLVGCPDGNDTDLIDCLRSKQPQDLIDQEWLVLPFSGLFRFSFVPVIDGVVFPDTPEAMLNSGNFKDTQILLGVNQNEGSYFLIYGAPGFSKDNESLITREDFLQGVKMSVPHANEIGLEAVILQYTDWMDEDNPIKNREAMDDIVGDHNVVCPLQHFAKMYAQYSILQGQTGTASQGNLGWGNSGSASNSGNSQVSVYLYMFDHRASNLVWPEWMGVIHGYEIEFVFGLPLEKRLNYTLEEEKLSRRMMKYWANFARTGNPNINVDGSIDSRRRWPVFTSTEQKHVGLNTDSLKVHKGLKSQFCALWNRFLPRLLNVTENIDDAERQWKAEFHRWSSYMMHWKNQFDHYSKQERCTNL
Description: Inhibition of electric eel AChE using acetylthiocholine chloride as substrate incubated for 15 mins prior to substrate addition by Ellman's method

[3] = Antioxidant activity assessed as trolox equivalent of peroxyl radical scavenging activity at 1 to 5 uM after 15 mins by oxygen radical absorbance capacity-fluorescein assay; format: functional
Acetylcholinesterase [4] = biological target: T1, Acetylcholinesterase; assay: Mixed-type inhibition of electric eel AChE using acetylthiocholine chloride as substrate incubated for 15 mins prior to substrate addition by Lineweaver-Burk plot analysis

Sequence of Cholinesterase (P81908 whole entry): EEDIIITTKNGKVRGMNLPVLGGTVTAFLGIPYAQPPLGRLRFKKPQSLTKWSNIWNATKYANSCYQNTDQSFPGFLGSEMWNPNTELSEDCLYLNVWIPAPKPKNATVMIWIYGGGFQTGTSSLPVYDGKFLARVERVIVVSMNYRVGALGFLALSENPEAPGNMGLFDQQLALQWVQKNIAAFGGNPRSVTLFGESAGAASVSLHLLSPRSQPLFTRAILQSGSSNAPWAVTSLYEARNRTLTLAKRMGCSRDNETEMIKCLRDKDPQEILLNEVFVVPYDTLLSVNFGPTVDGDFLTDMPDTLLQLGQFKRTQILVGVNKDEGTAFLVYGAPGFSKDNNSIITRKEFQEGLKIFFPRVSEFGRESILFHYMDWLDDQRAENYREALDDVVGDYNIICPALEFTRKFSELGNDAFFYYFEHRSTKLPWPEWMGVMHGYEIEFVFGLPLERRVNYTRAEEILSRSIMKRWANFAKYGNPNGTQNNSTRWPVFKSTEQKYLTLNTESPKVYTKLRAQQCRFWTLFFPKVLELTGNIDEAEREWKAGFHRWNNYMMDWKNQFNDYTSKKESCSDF

Row | Structure (SMILES) | IC50 (Cholinesterase) | inhibition [1] | IC50 (Acetylcholinesterase [2]) | Activity [3] | Ki (Acetylcholinesterase [4])
1 | CN(C)c1ccc(-c2cc(=O)c3ccc(OCCCCN4CCOCC4)cc3o2)cc1 | 10.1 µM | 44.7% | > 50 µM |  | 
2 | CN(CCCCOc1ccc2c(=O)cc(-c3ccc(N(C)C)cc3)oc2c1)Cc1ccccc1 | > 50 µM | 39.1% | 8.29 µM |  | 
3 | CN(CCCCCCCCCCOc1ccc2c(=O)cc(-c3ccc(N(C)C)cc3)oc2c1)Cc1ccccc1 | > 50 µM | 29.4% | 11.4 µM | 1.5 | 
4 | CN(CCCCCCCCCCCCOc1ccc2c(=O)cc(-c3ccc(N(C)C)cc3)oc2c1)Cc1ccccc1 | > 50 µM | 48.1% | 33.2 µM |  | 
5 | CCN(CC)CCCCCCOc1ccc2c(=O)cc(-c3ccc(N(C)C)cc3)oc2c1 | 4.61 µM | 38.1% | 3.11 µM |  | 
6 | CCN(CC)CCCCOc1ccc2c(=O)cc(-c3ccc(N(C)C)cc3)oc2c1 | 7.88 µM | 33.2% | 2.24 µM |  | 
7 | CN(C)c1ccc(-c2cc(=O)c3ccc(OCCCCN4CCCC4)cc3o2)cc1 | 6.14 µM | 36.6% | 2.77 µM |  | 
8 | CN(C)c1ccc(-c2cc(=O)c3ccc(OCCCCCCCCN4CCCC4)cc3o2)cc1 | 2.6 µM | 42.1% | 1.99 µM | 1.5 | 
9 | CCN(CC)CCCCCCCCOc1ccc2c(=O)cc(-c3ccc(N(C)C)cc3)oc2c1 | 5.01 µM | 45.8% | 1.83 µM | 1.5 | 0.386 µM
10 | CN(C)c1ccc(-c2cc(=O)c3ccc(OCCCCCCCCCCN4CCCC4)cc3o2)cc1 | 0.82 µM | 38.6% | 2.26 µM | 1.5 | 
11 | CN(C)c1ccc(-c2cc(=O)c3ccc(OCCCCCCN4CCCCC4)cc3o2)cc1 | 5.52 µM | 25.4% | 6.73 µM |  | 
12 | CN(C)c1ccc(-c2cc(=O)c3ccc(OCCCCCCN4CCCC4)cc3o2)cc1 | 11.5 µM | 32.6% | 9.18 µM |  | 
13 | CN(C)c1ccc(-c2cc(=O)c3ccc(OCCCCCCCCCCN4CCCCC4)cc3o2)cc1 | 2.42 µM | 40.7% | > 50 µM | 1.5 | 
14 | CN(C)c1ccc(-c2cc(=O)c3ccc(OCCCCCCCCN4CCCCC4)cc3o2)cc1 | 8.72 µM | 34.8% | 7.88 µM | 1.5 | 
15 | CN(CCCCCCOc1ccc2c(=O)cc(-c3ccc(N(C)C)cc3)oc2c1)Cc1ccccc1 | > 50 µM | 46.5% | 7.85 µM |  | 
16 | CN(C)c1ccc(-c2cc(=O)c3ccc(OCCCCN4CCCCC4)cc3o2)cc1 | 6.12 µM | 30.6% | 3.04 µM |  | 
17 | CCN(CC)CCCCCCCCCCOc1ccc2c(=O)cc(-c3ccc(N(C)C)cc3)oc2c1 | 2.31 µM | 33.4% | 3.74 µM | 1.5 | 
18 | CN(CCCCCCCCOc1ccc2c(=O)cc(-c3ccc(N(C)C)cc3)oc2c1)Cc1ccccc1 | > 50 µM | 39.5% | 24 µM | 1.5 | 
